Measurements published in PubChem BioAssay AID256 (DTP/NCI, 2004).
“And” between values parts separate entries of the source, which are not always exact repeats. Equal values may be shown once. Toxic doses and inconclusive results are not listed. How the source made its calls: active means survival T/C of 150% or more; inactive means T/C below 125% in these data.

Test system: CD2F1 mice, L1210 leukemia ip, survival T/C
Assay: NCI In Vivo Anticancer Drug Screen. Data for tumor model L1210 Leukemia (intraperitoneal) in CD2F1 (CDF1) mice
Conditions: higher = longer survival
Outline: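 Antitumor effect is scored in animals hosting a serially transplanted tumor. Values compare compound-dosed animals against vehicle-only controls as a simple quotient.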

[1] = endpoint: mean survival time, dose: 50.0 mg/kg/injection, schedule: Q01DX009 (ip), vehicle: saline with Tween-80
[2] = endpoint: mean survival time, dose: 100.0 mg/kg/injection, schedule: Q01DX009 (ip), vehicle: saline with Tween-80
[3] = endpoint: mean survival time, dose: 100.0 mg/kg/injection, schedule: Q04DX003 (ip), vehicle: saline with Tween-80
[4] = endpoint: mean survival time, dose: 200.0 mg/kg/injection, schedule: Q01DX009 (ip), vehicle: saline with Tween-80
[5] = endpoint: mean survival time, dose: 200.0 mg/kg/injection, schedule: Q04DX003 (ip), vehicle: saline with Tween-80
[6] = endpoint: mean survival time, dose: 100.0 mg/kg/injection, schedule: Q01DX001 (ip), vehicle: saline with Tween-80
[7] = endpoint: mean survival time, dose: 200.0 mg/kg/injection, schedule: Q01DX001 (ip), vehicle: saline with Tween-80
[8] = endpoint: mean survival time, dose: 400.0 mg/kg/injection, schedule: Q01DX001 (ip), vehicle: saline with Tween-80
[9] = endpoint: mean survival time, dose: 400.0 mg/kg/injection, schedule: Q01DX009 (ip), vehicle: saline with Tween-80
[10] = endpoint: mean survival time, dose: 400.0 mg/kg/injection, schedule: Q04DX003 (ip), vehicle: saline with Tween-80
[11] = endpoint: mean survival time, dose: 100.0 mg/kg/injection, schedule: Q01DX001 (ip), vehicle: saline
[12] = endpoint: mean survival time, dose: 100.0 mg/kg/injection, schedule: Q04DX003 (ip), vehicle: saline
[13] = endpoint: mean survival time, dose: 200.0 mg/kg/injection, schedule: Q04DX003 (ip), vehicle: saline
[14] = endpoint: mean survival time, dose: 100.0 mg/kg/injection, schedule: Q01DX009 (ip), vehicle: saline
[15] = endpoint: mean survival time, dose: 200.0 mg/kg/injection, schedule: Q01DX009 (ip), vehicle: saline
[16] = endpoint: mean survival time, dose: 400.0 mg/kg/injection, schedule: Q01DX009 (ip), vehicle: saline

Measured: T/C

Cc1c(N)cc([N+](=O)[O-])c(C)c1[N+](=O)[O-]
inactive: [1] 110 % of control | [2] 104 % of control | [3] 98 % of control | [4] 117 % of control | [5] 98 % of control

O=Nc1c(O)sc2ccccc12
inactive: [6] 110 % of control | [2] 97 % of control | [7] 105 % of control | [4] 100 % of control | [8] 95 % of control | [9] 94 % of control

CCOP(=S)(OCC)Oc1cccc(NC(=O)N(C)C)c1
inactive: [3] 96 % of control | [5] 91 % of control | [10] 99 % of control

CC(=O)OCC1OC(n2ncnc2CBr)C(OC(C)=O)C(OC(C)=O)C1OC(C)=O (stereo not given)
inactive: endpoint: median survival time, dose: 12.5 mg/kg/injection, schedule: Q01DX005 (ip), vehicle: distilled water + Tween-80 108 % of control | endpoint: median survival time, dose: 25.0 mg/kg/injection, schedule: Q01DX005 (ip), vehicle: distilled water + Tween-80 97 % of control | endpoint: median survival time, dose: 50.0 mg/kg/injection, schedule: Q01DX005 (ip), vehicle: distilled water + Tween-80 104 % of control

CC1(C)C=CS1(=O)=O
inactive: endpoint: mean survival time, dose: 50.0 mg/kg/injection, schedule: Q04DX003 (ip), vehicle: saline 98 % of control | [11] 103 % of control | [12] 96 % of control | endpoint: mean survival time, dose: 200.0 mg/kg/injection, schedule: Q01DX001 (ip), vehicle: saline 102 % of control | [13] 101 % of control

OCCOCC12c3ccccc3C3C(c4ccccc41)C32 (stereo not given)
inactive: endpoint: mean survival time, dose: 25.0 mg/kg/injection, schedule: Q01DX001 (ip), vehicle: saline with Tween-80 91 % of control | endpoint: mean survival time, dose: 50.0 mg/kg/injection, schedule: Q01DX001 (ip), vehicle: saline with Tween-80 97 % of control | [6] 105 % of control | [7] 94 % of control

OC(CN=C/C=C/c1ccccc1)c1ccccc1 (stereo not given)
inactive: [3] 95 % of control | [5] 89 % of control | [10] 92 % of control

O=C(/C(=N/N=C\c1ccc([N+](=O)[O-])cc1)c1ccccc1)c1ccccc1
inactive: [2] 101 % of control | [14] 109 % of control | [4] 95 % of control | [15] 109 % of control | [9] 95 % of control | [16] 104 % of control

O=S1(=O)C=Cc2ccccc2O1
inactive: endpoint: mean survival time, dose: 75.0 mg/kg/injection, schedule: Q01DX009 (ip), vehicle: saline 102 % of control | endpoint: mean survival time, dose: 75.0 mg/kg/injection, schedule: Q04DX003 (ip), vehicle: saline 97 % of control | endpoint: mean survival time, dose: 150.0 mg/kg/injection, schedule: Q01DX009 (ip), vehicle: saline 102 % of control | endpoint: mean survival time, dose: 150.0 mg/kg/injection, schedule: Q04DX003 (ip), vehicle: saline 95 % of control | endpoint: mean survival time, dose: 300.0 mg/kg/injection, schedule: Q01DX009 (ip), vehicle: saline 100 % of control | endpoint: mean survival time, dose: 300.0 mg/kg/injection, schedule: Q04DX003 (ip), vehicle: saline 97 % of control

NCCCCCC(=O)O
inactive: endpoint: mean survival time, dose: 25.0 mg/kg/injection, schedule: Q01DX001 (ip), vehicle: saline 98 % of control | endpoint: mean survival time, dose: 50.0 mg/kg/injection, schedule: Q01DX001 (ip), vehicle: saline 98 % of control | [11] 93 % of control | [14] 94 % of control | [12] 89 % of control | [15] 96 % of control | [13] 98 % of control | [16] 97 % of control | endpoint: mean survival time, dose: 400.0 mg/kg/injection, schedule: Q04DX003 (ip), vehicle: saline 102 % of control

O=C(O)c1ccc(C(=O)O)s1.[NH-]C1CCCCC1[NH-].[Pt+2]
inactive: endpoint: mean survival time, dose: 2.5 mg/kg/injection, schedule: Q04DX003 (ip), vehicle: dextrose 113 % of control | endpoint: mean survival time, dose: 5.0 mg/kg/injection, schedule: Q04DX003 (ip), vehicle: dextrose 118 % of control | endpoint: mean survival time, dose: 20.0 mg/kg/injection, schedule: Q04DX003 (ip), vehicle: dextrose 113 % of control

COc1cccc(/C=C(\C(=O)O)c2cccc(OC)c2)c1
inactive: endpoint: mean survival time, dose: 50.0 mg/kg/injection, schedule: Q04DX002 (ip), vehicle: saline with Tween-80 89 % of control | endpoint: mean survival time, dose: 100.0 mg/kg/injection, schedule: Q04DX002 (ip), vehicle: saline with Tween-80 86 % of control | endpoint: mean survival time, dose: 200.0 mg/kg/injection, schedule: Q04DX002 (ip), vehicle: saline with Tween-80 104 % of control

Nc1nc(N)c2nc(CN(CCc3ccccc3)c3ccc(C(=O)NC(CCC(=O)O)C(=O)O)cc3)cnc2n1 (stereo not given)
inactive: endpoint: mean survival time, dose: 20.0 mg/kg/injection, schedule: Q01DX009 (ip), vehicle: sodium bicarbonate 100 % of control | endpoint: mean survival time, dose: 40.0 mg/kg/injection, schedule: Q01DX009 (ip), vehicle: sodium bicarbonate 105 % of control | endpoint: mean survival time, dose: 80.0 mg/kg/injection, schedule: Q01DX009 (ip), vehicle: sodium bicarbonate 108 % of control | endpoint: mean survival time, dose: 100.0 mg/kg/injection, schedule: Q01DX001 (ip), vehicle: sodium bicarbonate 96 % of control | endpoint: mean survival time, dose: 200.0 mg/kg/injection, schedule: Q01DX001 (ip), vehicle: sodium bicarbonate 98 % of control | endpoint: mean survival time, dose: 400.0 mg/kg/injection, schedule: Q01DX001 (ip), vehicle: sodium bicarbonate 102 % of control

O=S(=O)(NCCNS(=O)(=O)c1ccccc1)c1ccccc1
inactive: [6] 110 % of control | [7] 95 % of control | [8] 100 % of control

CCOP(=O)(OCC)C(C(C)C)N(C)C (stereo not given)
inactive: [6] 103 % of control | [7] 101 % of control | [8] 98 % of control

CC/C=C(\C)C(CCC)(CN=O)C(=O)OCC (stereo not given)
inactive: endpoint: mean survival time, dose: 75.0 mg/kg/injection, schedule: Q01DX001 (ip), vehicle: saline 101 % of control | endpoint: mean survival time, dose: 150.0 mg/kg/injection, schedule: Q01DX001 (ip), vehicle: saline 97 % of control | endpoint: mean survival time, dose: 300.0 mg/kg/injection, schedule: Q01DX001 (ip), vehicle: saline 95 % of control

O=C(O)/C=C/C(=O)Nc1ccc(I)cc1
inactive: [2] 95 % of control | [3] 104 % of control | [4] 111 % of control | [5] 98 % of control | [10] 97 % of control

O=C(Nc1ccc(Cl)c(C(F)(F)F)c1)Nc1cc(C(F)(F)F)ccc1Sc1cc(Cl)c(Cl)cc1S(=O)(=O)O
inactive: [2] 101 % of control

CCOCCO
inactive: endpoint: mean survival time, dose: 5.0 mg/kg/injection, schedule: Q01DX001 (ip), vehicle: saline sonified 103 % of control | endpoint: mean survival time, dose: 10.0 mg/kg/injection, schedule: Q01DX001 (ip), vehicle: saline sonified 101 % of control | endpoint: mean survival time, dose: 20.0 mg/kg/injection, schedule: Q01DX001 (ip), vehicle: saline sonified 101 % of control

CC/C=N/Nc1ccc([N+](=O)[O-])cc1[N+](=O)[O-]
inactive: endpoint: mean survival time, dose: 12.5 mg/kg/injection, schedule: Q01DX009 (ip), vehicle: saline with Tween-80 91 % of control | endpoint: mean survival time, dose: 25.0 mg/kg/injection, schedule: Q01DX009 (ip), vehicle: saline with Tween-80 92 % of control | [1] 93 % of control

CC1=C(/C=C/C(C)=C/C=C/C(C)=C/C=O)C(C)(C)CCC1
inactive: endpoint: median survival time, dose: 6.25 mg/kg/injection, schedule: Q01DX005 (ip), vehicle: saline with Tween-80 105 % of control | endpoint: median survival time, dose: 12.5 mg/kg/injection, schedule: Q01DX005 (ip), vehicle: saline with Tween-80 100 % of control | endpoint: median survival time, dose: 25.0 mg/kg/injection, schedule: Q01DX005 (ip), vehicle: saline with Tween-80 97 % of control and 103 % of control | endpoint: median survival time, dose: 50.0 mg/kg/injection, schedule: Q01DX005 (ip), vehicle: saline with Tween-80 100 % of control and 101 % of control | endpoint: median survival time, dose: 100.0 mg/kg/injection, schedule: Q01DX005 (ip), vehicle: saline with Tween-80 104 % of control

Clc1ccc(COC(Cn2ccnc2)c2ccc(Cl)cc2Cl)c(Cl)c1 (stereo not given)
inactive: [3] 91 % of control | [5] 93 % of control
